The assay has as its target GST-Syk Full Protein (human) (Homo sapiens, UniProt P43405). Description: Syk kinase inhibition test (HTRF method). It is filed as biochemical. A digest of the protocol:
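Human GST-Syk full-length (6.4 nM) phosphorylated biotin-EDPDYEWPSA-NH2 (250 nM) with 100 μM ATP in HEPES pH 7.0/MgCl2 buffer, 2% DMSO, 30 min at room temperature. EDTA stop, then HTRF detection (streptavidin-XL665, Eu anti-phosphotyrosine) after 1 h; 665/620 ratio read.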
Background: TR-FRET usually uses a lanthanide donor and a delayed reading to cut background.

Setting [1] is: Tables 1-x, compounds A, read-out: sykHTRF ave IC50.
Setting [2] is: Tables 2-x, thiophene compounds B, read-out: sykHTRK ave IC50.
Setting [3] is: HTRF, 100 μM ATP, 30 min room temperature, average, read-out: sykHTRF ave IC50.

Where a name gives a salt, the structure may show the parent alone. Read-outs that look alike come from different tables or passages of the source.

Consider 44 compounds from patent US7803801B2, “Aminopyridine compounds having Syk inhibitory activity” (Japan Tobacco, Inc., priority 2005, dated 2010).

One may read the IC50 as the midpoint of a concentration-inhibition curve.

Take `Cc1ccnc(Nc2cccc(-c3cnc(N(CCCCCO)C(C)C)s3)n2)c1` [Compound A-678, 5-(N-isopropyl-N-{5-[6-(4-methylpyridin-2-ylamino)pyridin-2-yl]thiazol-2-yl}amino)pentan-1-ol]: the IC50 under setting [1] was less than 100 nM.

For the compound `Cc1ccnc(Nc2cccc(-c3cnc(NCCCCC(=O)O)s3)n2)c1` [Compound A-644, 5-{5-[6-(4-methylpyridin-2-ylamino)pyridin-2-yl]thiazol-2-ylamino}pentanoic acid], under setting [1], the IC50 is less than 100 nM. In the case of `CC(=O)c1ccc(-c2cccc(N(C(C)=O)c3cc(C)ccn3)n2)s1` [Compound B-89], under setting [2], the IC50 was greater than 1000 nM. For the compound `Cc1ccnc(Nc2cccc(-c3cnc(N4CCNCC4)s3)n2)c1` [Compound A-406], the IC50 under setting [1] fell in the range of 100 to 1000 nM. Still for that read-out and setting: as for `CN(c1ncc(-c2cccc(Nc3cc(C(F)(F)F)ccn3)n2)s1)[C@H]1CC[C@H](C(=O)O)CC1` [Compound A-638, trans-4-(N-methyl-N-{5-[6-(4-trifluoromethylpyridin-2-ylamino)pyridin-2-yl]thiazol-2-yl}amino)cyclohexanecarboxylic acid], the figure is less than 100 nM; as for `O=C(O)CC1CCN(c2ncc(-c3cccc(Nc4cnccn4)n3)s2)CC1` [Compound A-680, (1-{5-[6-(pyrazin-2-ylamino)pyridin-2-yl]thiazol-2-yl}piperidin-4-yl)acetic acid], less than 100 nM. Same read-out and setting: the result for `Cc1ccnc(Nc2cccc(-c3cnc(N(Cc4ccccc4)[C@H]4CC[C@@H](CC(=O)O)CC4)s3)n2)c1` [Compound A-625] reads 100 to 1000 nM. For the compound `Cc1ccnc(Nc2cccc(-c3ccc(C(=O)N[C@H](C(=O)O)C(C)C)s3)n2)c1` [Compound B-117], the IC50 under setting [2] lay within 100 to 1000 nM. Take `Cc1ccnc(Nc2cccc(-c3cnc(N(C[C@H]4CC[C@H](C(=O)O)CC4)C(C)C)s3)n2)c1` [Compound A-626, trans-4-[(N-isopropyl-N-{5-[6-(4-methylpyridin-2-ylamino)pyridin-2-yl]thiazol-2-yl}amino)methyl]cyclohexanecarboxylic acid]: the IC50 under setting [1] was less than 100 nM. On to `Cc1ccnc(Nc2cccc(-c3cnc(N4CCCc5ccc(C(=O)O)cc54)s3)n2)c1` [Compound A-621], for which the IC50 under setting [1] lay within 100 to 1000 nM. Still for that read-out and setting: the result for `CN(c1ncc(-c2cccc(Nc3ccccn3)n2)s1)C(C)(C)c1ccc(C(=O)O)cc1` [Compound A-691] reads 100 to 1000 nM. For the compound `Cc1ccnc(Nc2cccc(-c3cnc(CCc4cccc(C(=O)N5CCC(O)CC5)c4)s3)n2)c1` [Compound A-281], the IC50 under setting [3] lay within 100 to 1000 nM.

Regarding `CCOC(=O)c1nc([C@H](C)NC(=O)OC(C)(C)C)sc1-c1cccc(Nc2cc(C)ccn2)n1` [Compound A-100], the IC50 under setting [3] is greater than 1000 nM. As for `CNC(=O)CN(C)Cc1ncc(-c2cccc(Nc3cc(C)ccn3)n2)s1` [Compound A-687], under setting [1], the IC50 fell in the range of 100 to 1000 nM. For the compound `CN(CCO)c1ncc(-c2cccc(Nc3cc(CC(=O)O)ccn3)n2)s1` [Compound A-550], the IC50 under setting [1] fell in the range of 100 to 1000 nM.

`Cc1ccnc(Nc2cccc(-c3cnc(N4CCC(N(C)S(C)(=O)=O)CC4)s3)n2)c1` [Compound A-485, N-methyl-N-(1-{5-[6-(4-methylpyridin-2-ylamino)pyridin-2-yl]thiazol-2-yl}piperidin-4-yl)methanesulfonamide]: the IC50 under setting [1] was less than 100 nM.

As for `Cc1ccnc(Nc2cccc(-c3cnc(N4CCCc5c(C(=O)O)cccc54)s3)n2)c1` [Compound A-627, 1-{5-[6-(4-methylpyridin-2-ylamino)pyridin-2-yl]thiazol-2-yl}-1,2,3,4-tetrahydroquinoline-5-carboxylic acid], the IC50 under setting [1] was less than 100 nM.

Turning to `Cc1ccnc(Nc2cccc(-c3cnc([C@H](CCC(=O)OCc4ccccc4)NC(=O)OC(C)(C)C)s3)n2)c1` [Compound A-96], under setting [3], the IC50 was greater than 1000 nM. On to `Cc1ccnc(Nc2cccc(-c3cnc(N4CCC(C(=O)NC(C)(C)CO)CC4)s3)n2)c1` [Compound A-455], for which the IC50 under setting [1] lay in the range of 100 to 1000 nM. Same read-out and setting: the result for `Cc1ccnc(Nc2cccc(-c3cnc(N(C)C4CCN(C(=O)C5CCC(O)CC5)CC4)s3)n2)c1` (centres unmarked) [Compound A-672] reads 100 to 1000 nM; that for `Cc1ccnc(Nc2cccc(-c3cnc(N(C)C4CCN(C(=O)N(C)C)CC4)s3)n2)c1` [Compound A-511, N,N-dimethyl-4-(N′-methyl-N′-{5-[6-(4-methylpyridin-2-ylamino)pyridin-2-yl]thiazol-2-yl}amino)piperidine-1-carboxamide], less than 100 nM; that for `CC(C)(C(=O)O)C1CCN(c2ncc(-c3cccc(Nc4cnccn4)n3)s2)CC1` [Compound A-707, 2-methyl-2-(1-{5-[6-(pyrazin-2-ylamino)pyridin-2-yl]thiazol-2-yl}piperidin-4-yl)propionic acid dihydrochloride], less than 100 nM. The same measure, in the same setting: as for `Cc1ccnc(Nc2cccc(-c3cnc(CN4CCC[C@H]4C(N)=O)s3)n2)c1` [Compound A-667], the figure is 100 to 1000 nM; as for `O=C(O)CC1CCN(c2ncc(-c3cccc(Nc4cc(OCC(F)(F)F)ccn4)n3)s2)CC1` [Compound A-700, [1-(5-{6-[4-(2,2,2-trifluoroethoxy)pyridin-2-ylamino]pyridin-2-yl}thiazol-2-yl)piperidin-4-yl]acetic acid dihydrochloride], less than 100 nM.

In the case of `Cc1ccnc(Nc2cccc(-c3cnc(N(C)C4CCN(C(=O)NCCO)CC4)s3)n2)c1` [Compound A-705, N-(2-hydroxyethyl)-4-(N′-methyl-N′-{5-[6-(4-methylpyridin-2-ylamino)pyridin-2-yl]thiazol-2-yl}amino)piperidine-1-carboxamide], the IC50 under setting [1] is less than 100 nM.

For the compound `Cc1ccnc(Nc2cccc(-c3cnc(NCc4ccccc4)s3)n2)c1` [Compound A-694], under setting [1], the IC50 is 100 to 1000 nM. On to `Cc1ccnc(Nc2cccc(-c3ccc(C(=O)NC[C@H]4CC[C@H](C(=O)O)CC4)s3)n2)c1` [Compound B-111], for which the IC50 under setting [2] lay within 100 to 1000 nM. With `Cc1ccnc(Nc2cccc(-c3cnc(N4C5CCC4CC(CC(=O)O)C5)s3)n2)c1` (centres unmarked) [Compound A-649, (8-{5-[6-(4-methylpyridin-2-ylamino)pyridin-2-yl]thiazol-2-yl}-8-azabicyclo[3.2.1]oct-3-yl)acetic acid], under setting [1], the IC50 is less than 100 nM. As for `Cc1ccnc(Nc2cccc(-c3cnc([C@@H](N)Cc4ccc(O)cc4)s3)n2)c1` [Compound A-389], under setting [1], the IC50 fell in the range of 100 to 1000 nM. On the same count and under the same terms, the result for `Cc1ccnc(Nc2cccc(-c3cnc(N4CCC(C(C)(C)C(=O)O)CC4)s3)n2)c1` [Compound A-718, 2-methyl-2-(1-{5-[6-(4-methylpyridin-2-ylamino)pyridin-2-yl]thiazol-2-yl}piperidin-4-yl)propionic acid dihydrochloride] reads less than 100 nM.

For the compound `COCCN(C)C(=O)C1CCN(c2ncc(-c3cccc(Nc4cc(C)ccn4)n3)s2)CC1` [Compound A-451], the IC50 under setting [1] was in the range of 100 to 1000 nM. The same measure, in the same setting: as for `CC(=CC(=O)O)CCCN(C)c1ncc(-c2cccc(Nc3cc(C)ccn3)n2)s1` [Compound A-656, 3-methyl-6-(N-methyl-N-{5-[6-(4-methylpyridin-2-ylamino)pyridin-2-yl]thiazol-2-yl}amino)hex-2-enoic acid dihydrochloride], the figure is less than 100 nM. Same read-out and setting: the result for `Cc1ccnc(Nc2cccc(-c3cnc(N(C)C4CCN(C(=O)N5CCC(O)CC5)CC4)s3)n2)c1` [Compound A-703] reads 100 to 1000 nM; that for `Cc1ccnc(Nc2cccc(-c3cnc(N(C)C4CCC(C(=O)N(C)C)CC4)s3)n2)c1` (centres unmarked) [Compound A-447], 100 to 1000 nM.

For the compound `O=C(O)C(F)C1CCN(c2ncc(-c3cccc(Nc4ccccn4)n3)s2)CC1` (centres unmarked) [Compound A-716, fluoro-(1-{5-[6-(pyridin-2-ylamino)pyridin-2-yl]thiazol-2-yl}piperidin-4-yl)acetic acid dihydrochloride], the IC50 under setting [1] is less than 100 nM. Same read-out and setting: as for `Cc1ccnc(Nc2cccc(-c3cnc(N(C)CCCC(=O)O)s3)n2)c1` [Compound A-634, 4-(N-methyl-N-{5-[6-(4-methylpyridin-2-ylamino)pyridin-2-yl]thiazol-2-yl}amino)butyric acid dihydrochloride], the figure is less than 100 nM; as for `Cc1ccnc(Nc2cccc(-c3cnc(N(C)C4CCN(C(=O)C(C)(C)C)CC4)s3)n2)c1` [Compound A-671], 100 to 1000 nM.

Turning to `Cc1ccnc(Nc2cccc(-c3ccc(CN4CCC(C(=O)O)CC4)s3)n2)c1` [Compound B-106], under setting [2], the IC50 was in the range of 100 to 1000 nM. With `Cc1ccnc(Nc2cccc(-c3cnc(N4CCC[C@H]4C(=O)N[C@@H](C)C(=O)O)s3)n2)c1` [Compound A-566], the IC50 under setting [1] lay within 100 to 1000 nM. Still for that read-out and setting: as for `Cc1ccnc(Nc2cccc(-c3cnc(N4CCCC(CCC(=O)O)C4)s3)n2)c1` (centres unmarked) [Compound A-704, 3-(1-{5-[6-(4-methylpyridin-2-ylamino)pyridin-2-yl]thiazol-2-yl}piperidin-3-yl)propionic acid], the figure is less than 100 nM; as for `Cc1ccnc(Nc2cccc(-c3cnc(N4CCC[C@@H](c5nnn[nH]5)C4)s3)n2)c1` [Compound A-590, N-(4-methylpyridin-2-yl)-N-(6-{2-[(R)-3-(1H-tetrazol-5-yl)piperidin-1-yl]thiazol-5-yl}pyridin-2-yl)amine], less than 100 nM. Same read-out and setting: the result for `Cc1ccnc(Nc2cccc(-c3cnc(N4CCC(CC(=O)O)CC4)s3)n2)c1` [Compound A-653, (1-{5-[6-(4-methylpyridin-2-ylamino)pyridin-2-yl]thiazol-2-yl}piperidin-4-yl)acetic acid] reads less than 100 nM; that for `Cc1ccnc(Nc2cccc(-c3cnc(NC(C)C)s3)n2)c1` [Compound A-693, N-isopropyl-N-{5-[6-(4-methylpyridin-2-ylamino)pyridin-2-yl]thiazol-2-yl}amine], less than 100 nM. On the same count and under the same terms, the result for `CCc1ccnc(Nc2cccc(-c3cnc(N4CCC(CC(=O)O)CC4)s3)n2)c1` [Compound A-692, (1-{5-[6-(4-ethylpyridin-2-ylamino)pyridin-2-yl]thiazol-2-yl}piperidin-4-yl)acetic acid dihydrochloride] reads less than 100 nM.
